Assay results: ChEMBL document CHEMBL3600294, “Synthesis, molecular docking and biological evaluation of 3-arylfuran-2(5H)-ones as anti-gastric ulcer agent” (Bioorg Med Chem, 2015)
pIC50: −log10 of the molar value. Values after ≈ are worked out from the molar mass of the structure shown.

Tests used:
[1] = Inhibition of Staphylococcus aureus TyrRS expressed in Escherichia coli using [ring-3,5-3H]-tyrosine preincubated for 10 mins assessed as aminoacylation by liquid scintillation counting
[2] = Antioxidant activity assessed as DPPH radical scavenging activity incubated for 30 mins
Helicobacter pylori = assay: Antibacterial activity against Helicobacter pylori ATCC 43504 after 24 hrs by microdilution broth method; format: functional; details: ATCC 43504, 24 h
[3] = biological target: Urease subunit alpha/Urease subunit beta (Helicobacter pylori (strain ATCC 700392 / 26695) (Campylobacterpylori), UniProt P69996); assay: Inhibition of Helicobacter pylori urease assessed as ammonia production preincubated for 1.5 hrs by indophenol method
Chain of Urease subunit alpha/Urease subunit beta (P69996 whole entry): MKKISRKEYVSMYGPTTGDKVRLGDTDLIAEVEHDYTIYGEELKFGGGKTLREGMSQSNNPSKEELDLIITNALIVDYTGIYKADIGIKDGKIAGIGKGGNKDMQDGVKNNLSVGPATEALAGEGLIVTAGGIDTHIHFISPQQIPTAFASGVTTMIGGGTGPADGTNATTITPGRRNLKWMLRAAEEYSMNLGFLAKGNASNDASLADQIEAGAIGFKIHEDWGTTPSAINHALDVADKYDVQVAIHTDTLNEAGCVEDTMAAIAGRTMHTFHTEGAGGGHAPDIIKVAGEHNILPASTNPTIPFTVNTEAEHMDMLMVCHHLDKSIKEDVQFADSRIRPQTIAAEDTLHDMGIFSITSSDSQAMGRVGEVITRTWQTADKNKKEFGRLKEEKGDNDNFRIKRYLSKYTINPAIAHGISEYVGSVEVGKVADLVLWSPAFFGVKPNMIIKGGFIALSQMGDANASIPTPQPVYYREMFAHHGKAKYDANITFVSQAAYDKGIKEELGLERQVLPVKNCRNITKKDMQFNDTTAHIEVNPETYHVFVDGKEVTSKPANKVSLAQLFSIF
Chain of Urease subunit alpha/Urease subunit beta (P14916 whole entry, further chain): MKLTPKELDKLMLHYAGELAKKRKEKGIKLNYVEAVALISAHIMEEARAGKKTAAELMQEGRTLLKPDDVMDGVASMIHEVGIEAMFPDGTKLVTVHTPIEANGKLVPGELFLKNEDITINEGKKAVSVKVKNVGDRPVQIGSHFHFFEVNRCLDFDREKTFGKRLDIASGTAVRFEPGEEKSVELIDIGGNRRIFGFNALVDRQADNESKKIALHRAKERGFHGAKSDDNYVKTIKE

SMILES	pIC50 [1]	pIC50 ([2]; DPPH radical solution)	MIC50 (Helicobacter pylori) [µg/mL]	pIC50 [3]	pIC50 [2]
O=C1OCC(OCCN2CCOCC2)=C1c1ccc(O)cc1	7.00				
O=C1OCC(O)=C1c1ccccc1	5.25	4.87	4.7 (≈ 26.7 µM)	4.05	
O=C1OCC(O)=C1c1ccccc1F	5.72	< 4.00	2.7 (≈ 13.9 µM)	4.12	
O=C1OCC(O)=C1c1ccccc1Cl		< 4.00	36.7 (≈ 174 µM)	4.17	
Cc1ccccc1C1=C(O)COC1=O	6.22	4.34	1.5 (≈ 7.89 µM)	4.19	
O=C1OCC(O)=C1c1ccccc1OCc1ccccc1	5.60	< 4.00	13.8 (≈ 48.9 µM)	4.30	
O=C1OCC(O)=C1c1cccc(F)c1	4.56	4.63	> 100	4.21	
O=C1OCC(O)=C1c1cccc(Cl)c1	4.81	4.78	36.7 (≈ 174 µM)	4.34	
O=C1OCC(O)=C1c1cccc(Br)c1	4.88	4.95	24.5 (≈ 96.1 µM)	4.09	
Cc1cccc(C2=C(O)COC2=O)c1	5.96	5.09	2.6 (≈ 13.7 µM)	4.51	
O=C1OCC(O)=C1c1cccc(C(F)(F)F)c1	4.76	3.96	28.2 (≈ 115 µM)	4.19	
O=C1OCC(O)=C1c1cccc(OCc2ccccc2)c1		4.50	31.7 (≈ 112 µM)	4.11	
O=C1OCC(O)=C1c1ccc(F)cc1		< 4.00	27.7 (≈ 143 µM)	4.39	
O=C1OCC(O)=C1c1ccc(Cl)cc1		4.73	49.3 (≈ 234 µM)	< 4.00	
O=C1OCC(O)=C1c1ccc(Br)cc1		4.77	61.3 (≈ 240 µM)	< 4.00	
Cc1ccc(C2=C(O)COC2=O)cc1	5.07	4.91	15.2 (≈ 79.9 µM)	< 4.00	
O=C1OCC(O)=C1c1ccc(OCc2ccccc2)cc1	4.52	4.47	52.1 (≈ 185 µM)	4.98	
O=C1OCC(O)=C1c1ccc(Cl)c(Cl)c1		4.54	> 100	< 4.00	
COc1ccc(C2=C(O)COC2=O)cc1OC		4.69	46.2 (≈ 196 µM)	4.44	
CCOc1ccc(C2=C(O)COC2=O)cc1OCC		4.63	72.5 (≈ 274 µM)	4.04	
O=C1OCC(O)=C1c1ccc(Cl)cc1Cl		< 4.00	> 100	< 4.00	
CC1(C)S[C@@H]2[C@H](NC(=O)[C@H](N)c3ccc(O)cc3)C(=O)N2[C@H]1C(=O)O [AMOXICILLIN]			0.8 (≈ 2.19 µM)		
O=C1O[C@H]([C@@H](O)CO)C(O)=C1O [ASCORBIC ACID]					4.92
